Measurements: ChEMBL document CHEMBL5360622, “Leucettinibs, a Class of DYRK/CLK Kinase Inhibitors Inspired by the Marine Sponge Natural Product Leucettamine B” (J Med Chem, 2023)

Columns and labels:
[1] = biological target: Dual specificity protein kinase CLK3 (Homo sapiens, UniProt P49761); type: cell-based, Sf9
[2] = biological target: T1, Dual specificity tyrosine-phosphorylation-regulated kinase 3 (Homo sapiens, UniProt O43781)
T1 sequence (O43781 whole entry): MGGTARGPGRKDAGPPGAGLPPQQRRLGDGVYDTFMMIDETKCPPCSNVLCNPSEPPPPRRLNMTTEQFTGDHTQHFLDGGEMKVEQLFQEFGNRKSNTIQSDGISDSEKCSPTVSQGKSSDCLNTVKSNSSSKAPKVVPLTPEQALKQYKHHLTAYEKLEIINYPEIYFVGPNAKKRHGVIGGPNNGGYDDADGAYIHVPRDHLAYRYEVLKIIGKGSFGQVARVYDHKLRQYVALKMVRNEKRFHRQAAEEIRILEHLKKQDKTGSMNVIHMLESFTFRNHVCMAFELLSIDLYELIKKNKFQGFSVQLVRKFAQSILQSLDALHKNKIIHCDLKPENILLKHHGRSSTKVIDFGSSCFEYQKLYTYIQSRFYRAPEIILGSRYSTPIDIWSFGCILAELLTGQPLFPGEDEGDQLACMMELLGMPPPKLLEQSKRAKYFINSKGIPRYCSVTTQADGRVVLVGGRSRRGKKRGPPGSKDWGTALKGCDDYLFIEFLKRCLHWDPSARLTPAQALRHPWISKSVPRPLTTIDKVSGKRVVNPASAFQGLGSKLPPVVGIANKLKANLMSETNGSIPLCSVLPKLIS

[3] = biological target: Aurora kinase A (Homo sapiens) (UniProt O14965); settings: dose 10.0 µM
Aurora kinase A (Homo sapiens), sequence (O14965 whole entry): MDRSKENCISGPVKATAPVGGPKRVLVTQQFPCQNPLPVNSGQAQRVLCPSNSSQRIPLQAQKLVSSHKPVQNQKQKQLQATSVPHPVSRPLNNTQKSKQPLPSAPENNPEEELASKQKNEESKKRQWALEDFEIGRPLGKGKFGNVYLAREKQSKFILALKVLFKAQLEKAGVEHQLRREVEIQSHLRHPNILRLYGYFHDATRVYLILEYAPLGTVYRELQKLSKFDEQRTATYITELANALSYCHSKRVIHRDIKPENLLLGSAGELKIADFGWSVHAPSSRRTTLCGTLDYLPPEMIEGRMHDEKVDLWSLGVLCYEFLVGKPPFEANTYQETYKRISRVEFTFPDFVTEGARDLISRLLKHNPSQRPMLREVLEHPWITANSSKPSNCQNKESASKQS

[4] = biological target: Serine/threonine-protein kinase pim-3 (Homo sapiens) (UniProt Q86V86); settings: dose 10.0 µM
[5] = biological target: Casein kinase I isoform delta (Homo sapiens) (UniProt P48730); settings: dose 10.0 µM
Casein kinase I isoform delta (Homo sapiens), sequence (P48730 whole entry, looked up, canonical isoform): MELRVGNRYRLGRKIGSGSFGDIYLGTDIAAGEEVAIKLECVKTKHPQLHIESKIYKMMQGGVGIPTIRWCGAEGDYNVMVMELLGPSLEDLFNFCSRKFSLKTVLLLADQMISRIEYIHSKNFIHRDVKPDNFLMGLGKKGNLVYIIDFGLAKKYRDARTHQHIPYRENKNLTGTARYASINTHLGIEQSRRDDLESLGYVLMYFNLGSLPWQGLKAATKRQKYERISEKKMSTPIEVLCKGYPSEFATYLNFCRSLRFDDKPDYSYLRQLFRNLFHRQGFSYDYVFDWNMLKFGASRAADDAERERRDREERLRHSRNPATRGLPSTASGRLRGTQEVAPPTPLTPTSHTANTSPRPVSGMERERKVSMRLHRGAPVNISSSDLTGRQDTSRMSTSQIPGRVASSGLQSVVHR

Dual specificity protein kinase CLK3, sequence (P49761 whole entry): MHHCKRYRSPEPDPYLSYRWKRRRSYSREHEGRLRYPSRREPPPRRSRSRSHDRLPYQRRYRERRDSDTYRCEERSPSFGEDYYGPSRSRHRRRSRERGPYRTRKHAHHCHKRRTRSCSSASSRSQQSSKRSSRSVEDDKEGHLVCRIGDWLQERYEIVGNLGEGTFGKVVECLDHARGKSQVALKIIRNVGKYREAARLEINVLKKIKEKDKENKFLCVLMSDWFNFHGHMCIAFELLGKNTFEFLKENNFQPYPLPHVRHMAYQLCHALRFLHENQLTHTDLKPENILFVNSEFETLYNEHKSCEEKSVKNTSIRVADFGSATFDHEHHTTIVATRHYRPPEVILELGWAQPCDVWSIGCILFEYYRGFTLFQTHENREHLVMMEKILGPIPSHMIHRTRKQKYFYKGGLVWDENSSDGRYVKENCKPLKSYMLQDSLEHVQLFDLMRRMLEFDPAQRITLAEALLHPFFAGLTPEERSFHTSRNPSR

O=C1NC(NC23CC4CC(CC(C4)C2)C3)=N/C1=C\c1ccc2scnc2c1
IC50 [1]: > 10 µM
IC50 [2]: > 10 µM
ΔTm [3]: -0.4 °C
ΔTm [4]: 1 °C
ΔTm [5]: 1.4 °C
